Source: US20050256308A1, “Spiro compounds, medicinal compositions containing the same and intermediates of the compounds” (Dainippon Pharmaceutical Co., Ltd., priority 2002, published 2005)
Counter-ions that a name gives are not always drawn.

Experiments:
Jcl:SD male rats = assay: Effect on serum cholesterol level in rat; type: in vivo; conditions: for Blood cholesterol: oral once a day for 4 days; for Blood cholesterol lowering action: summary of Table 6(1) and 6(2)
Protocol: A test compound was dissolved in 10% aqueous cyclodextrin solution, and orally administrated to 7-week-old Jcl:SD male rats (manufactured by CLEA Japan, Inc.) once a day for 4 consecutive days. The blood was drawn on the next day of the final administration, and plasma cholesterol was measured using a measurement kit (cholesterol CII-testwako, manufactured by Wako Pure Chemical Industries, Ltd.).

ovariectomized rats [1] = assay: Luteinizing hormone (LH) level in serum of ovariectomized rats; type: in vivo; conditions: ovariectomized rat; for Serum LH: oral once a day for two weeks
Protocol: (§1) A test compound was dissolved in 10% aqueous cyclodextrin solution and orally administered to ovariectomized rats once a day for two consecutive weeks. The blood was drawn under ether anesthesia. The blood sample was allowed to coagulate at room temperature for 1 hr and centrifuged at 3000 rpm for 10 min to give serum. The amount of LH in serum was measured using a rat LH radioimmunoassay kit (manufactured by Immunotec Research Ltd., France).

ovariectomized rats [2] = assay: Effect on decreased femur bone density of ovariectomized rat (pQCT); type: in vivo; conditions: for Bone density: femural metaphysis, oral once a day for 4 weeks; for Effect on decrease in the bone density due to ovariectomy: summary of Table 5(1) and 5(2)
Source text: The ovary on the both sides of 13-week-old Jcl:SD female rats (manufactured by CLEA Japan, Inc.) were removed under ether anesthesia or the rats were subjected to a sham surgery, and a test compound dissolved in 10% aqueous cyclodextrin solution was orally administrated from the next day once a day for 4 consecutive weeks (10 rats/group). The rats were sacrificed by hemorrhage on the next day of the final administration and the left femur was removed. The bone density of the femural metaphysis was measured using pQCT [peripheral Quantitative Computed Tomography, XCT-960A, manufactured by Norland-Stratec].

ovariectomized rats [3] = assay: Uterus weight of ovariectomized rat (side effects); type: in vivo; conditions: for Uterus weight: ovariectomized rat
Protocol: as §1
To investigate the side effects of the compound of the present invention, the test compound was orally administered consecutively to ovariectomized rats and sham surgery rats in the same manner as in Experimental Example 1b, the uterus was removed and weighed.

ovariectomized rats [4] = assay: Effects on climacteric syndrome (hot flash-like symptom): tail skin temperature of ovariectomized rats; type: in vivo, rat; conditions: for Effect on the action of β-estradiol on the tissues involved in the hot flash-like symptom: combined use, summary of Table 3; for Effect on hot flash-like symptom: summary of Table 2
Protocol: The effect of the compound of the present invention on climacteric syndrome was investigated using ovariectomized rats. The ovariectomized rats were prepared by removing the ovary on the both sides from 8-week-old Jcl:SD female rats (manufactured by CLEA Japan, Inc.) under ether anesthesia. The rats were bred under the conditions of illumination for 12 hours (6:00-18:00) every day, room temperature 24±0.5° C., and were allowed free intake of solid feed (CE-2, manufactured by CLEA Japan, Inc.) and water. The rats after 2 weeks of ovariectomy were subjected to the following experiment. The rats to be used for sham surgery group were treated in the same manner except ovariectomy.
The rats after 2 weeks of ovariectomy and sham surgery were subjected to the measurement of tail skin temperature by reference to the method of Hosono et al. (Am. J. Physiol. Regulatory Integrative Comp. Physiol. 280: R1341-R1347, 2001) without anesthesia. To be specific, a temperature sensor (SXK-67, manufactured by TAKARA THERMISTOR) was fixed at 5 cm from the base of the tail of the rats with an adhesive plaster (manufactured by NICHIBAN), and covered with an aluminum plate. The other end of the temperature sensor was connected to a fluclet (manufactured by DAINIPPON PHARMACEUTICAL CO., LTD.) via an amplifier (E332, manufactured by TAKARA THERMISTOR) and measurement and analysis were performed for 2 hr. The results are shown in Table 1, wherein an incidence of a hot flash-like symptom was confirmed at the tail of the ovariectomized rats.
A test compound was dissolved in a solvent (10% aqueous cyclodextrin solution), and orally administered to ovariectomized rats once a day for two consecutive weeks. The tail skin temperature was measured in the same manner as in the aforementioned method on the day of the final administration.

[5] = Table 7, oral once a day for two weeks, dose 1.0 mg/kg
[6] = Table 2, oral once a day for two weeks, dose 10.0 mg/kg
[7] = Table 2, oral once a day for two weeks, dose 0.1 mg/kg
[8] = Table 2, oral once a day for two weeks, dose 1.0 mg/kg

Structure (SMILES) | Blood cholesterol lowering action (Jcl:SD male rats) | Bone density (ovariectomized rats [2]; Table 5(1), dose 1.0 mg/kg) | Uterus weight (ovariectomized rats [3]; [5]) | Blood cholesterol (Jcl:SD male rats; Table 6(1), dose 0.3 mg/kg) | Average tail skin temperature (ovariectomized rats [4]; [6]) | Average tail skin temperature (ovariectomized rats [4]; [7]) | Average tail skin temperature (ovariectomized rats [4]; [8]) | Effect on the action of β-estradiol on the tissues involved in the hot flash-like symptom (ovariectomized rats [4]) | Effect on hot flash-like symptom (ovariectomized rats [4]) | Effect on decrease in the bone density due to ovariectomy (ovariectomized rats [2]) | also measured
CC(C)CN1CCC(c2ccc(C3=CC4(CCc5cc(O)ccc54)c4ccc(O)cc43)cc2)CC1 (stereo not shown) [Example 30, 3-[4-(1-isobutyl-4-piperidinyl)phenyl]spiro[indene-1,1′-indan]-5,5′-diol hydrochloride] | significant blood cholesterol lowering action at a lower dose than β-estradiol |  |  |  |  |  |  |  |  |  | Blood cholesterol (Jcl:SD male rats; Table 6(2), dose 1.0 mg/kg): 23.6 ± 2.2 mg/dL
C[C@]12CC[C@@H]3c4ccc(O)cc4CC[C@H]3[C@@H]1CC[C@@H]2O [β-estradiol, reference compound] |  | 767.3 ± 63.9 mg/mL | 406.3 ± 20.6 mg | 62.7 ± 7.5 mg/dL | 27.7 ± 0.2 °C |  |  |  |  |  | Serum LH (ovariectomized rats [1]; dose 3.0 mg/kg): 7.6 ± 0.97 ng/mL; Uterus weight (ovariectomized rats [3]; Table 8, single administration, dose 3.0 mg/kg): 491.7 ± 19.6 mg; Blood cholesterol (Jcl:SD male rats; Table 6(1), dose 1.0 mg/kg): 42.8 ± 6.1 mg/dL; Blood cholesterol (Jcl:SD male rats; Table 6(1), dose 3.0 mg/kg): 25.8 ± 2.0 mg/dL; Average tail skin temperature (ovariectomized rats [4]; Table 2, oral once a day for two weeks, dose 3.0 mg/kg): 28.4 ± 0.6 °C; Average tail skin temperature (ovariectomized rats [4]; Table 3, oral once a day for two weeks, single use, dose 3.0 mg/kg): 28.1 ± 0.6 °C
Cl.Oc1ccc2c(c1)CC[C@@]21C[C@@H](c2ccc(OCCN3CCCCC3)cc2)c2cc(O)ccc21 (relative stereo) [Example 36A, (1R*,3S*)-3-[4-(2-piperidinoethoxy)phenyl]-1,1′-spirobiindan-5,5′-diol hydrochloride] |  |  |  |  | 29.0 ± 0.4 °C | 29.9 ± 0.4 °C | 29.4 ± 0.4 °C | did not inhibit the action of β-estradiol | improved the hot flash-like symptom |  | 
Cl.Oc1ccc2c(c1)CCC21C=C(c2ccc(OCCN3CCCCC3)cc2)c2cc(O)ccc21 (single isomer, unassigned; (+)) [Example 37, (+)-3-[4-(2-piperidinoethoxy)phenyl]spiro[indene-1,1′-indan]-5,5′-diol hydrochloride] |  |  |  |  |  |  |  |  |  | significantly suppressed the decrease in the bone density | Bone density (ovariectomized rats [2]; Table 5(2), dose 0.01 mg/kg): 551 ± 10 mg/mL; Bone density (ovariectomized rats [2]; Table 5(2), dose 0.1 mg/kg): 620 ± 15 mg/mL; Bone density (ovariectomized rats [2]; Table 5(2), dose 1.0 mg/kg): 658 ± 17 mg/mL
Oc1ccc2c(c1)CCC21C=C(c2ccc(OCCN3CCCCC3)cc2)c2cc(O)ccc21 (stereo not shown) [Example 1, 3-[4-(2-piperidinoethoxy)phenyl]spiro[indene-1,1′-indan]-5,5′-diol hydrochloride] | significant blood cholesterol lowering action at a lower dose than β-estradiol | 738.0 ± 47.9 mg/mL | 178.6 ± 9.3 mg | 41.6 ± 5.2 mg/dL | 28.0 ± 0.5 °C | 29.4 ± 0.3 °C | 28.9 ± 0.4 °C | did not inhibit the action of β-estradiol | improved the hot flash-like symptom | significantly suppressed the decrease in the bone density | Serum LH (ovariectomized rats [1]; dose 1.0 mg/kg): 10.1 ± 0.60 ng/mL; Effect on increase in the LH amount due to ovariectomy (ovariectomized rats [1]; summary of Table 4): significantly suppressed increase in the LH amount; Effect on uterus weight of ovariectomized rat (ovariectomized rats [3]; summary of Table 7): does not significantly increase the uterus weight; Effect on the uterus weight increasing action of β-estradiol (ovariectomized rats [3]; summary of Table 8): significantly suppressed the uterus weight increasing action of β-estradiol; Blood cholesterol (Jcl:SD male rats; Table 6(1), dose 0.03 mg/kg): 63.1 ± 4.8 mg/dL; Blood cholesterol (Jcl:SD male rats; Table 6(1), dose 0.1 mg/kg): 53.8 ± 7.3 mg/dL
